Data from patent publication US7081260B2, “α-Glucosidase inhibitors from a natural source” (Council of Scientific and Industrial Research, priority 2002, dated 2006).
Converted amounts (≈) assume the structure as drawn.

Columns and labels:
[1] = biological target: yeast α-glucosidase enzyme; experiment: α-glucosidase inhibitory assay by the chromogenic method; format: biochemical; settings: p-nitrophenyl-α-D-glucopyranoside substrate; for IC50 value: pH 7.00; for α-glucosidase inhibitory activity up to: pH 7.00, maximum inhibition
Experimental: Determination of α-Glucosidase Inhibition Activity of Compounds Isolated From P. longum:
The α-glucosidase inhibitory assay was done by the chromogenic method. In brief 10 μl of test compounds dissolved in DMSO (5 mg/ml and subsequent dilutions) were incubated for 5 min. with 5 μl of yeast α-glucosidase enzyme prepared in 100 mM phosphate buffer (pH 7.00). After 5 minutes of incubation, […] of 5 mM substrate (p-nitrophenyl-α-D-glucopyranoside prepared in the same buffer) were added. The pre-substrate and 5-min post-substrate addition absorbances were recorded at 405 nm spectrophotometrically. The increases in absorbance from pre-substrate addition to post substrate reaction were obtained. Percent inhibition was calculated by (1-O.D test/O.D control)×100 and inhibitory concentration 50% (IC50) was calculated by applying suitable regression analysis.

[2] = in vivo; cited from earlier work
[3] = tested on: Toxocara canis; settings: against Toxocara canis; cited from earlier work
[4] = tested on: Collosobruchus chinenses; settings: against Collosobruchus chinenses; cited from earlier work
[5] = tested on: p. gossipiella, H. virescens, H. ze; settings: against p. gossipiella; cited from earlier work
[6] = tested on: Leplinotarsa dectmlineata; settings: against Leplinotarsa dectmlineata; cited from earlier work
[7] = tested on: Musca Domestica; settings: against Musca Domestica; cited from earlier work
[8] = tested on: Aedus Eriseratus larvae; settings: against Aedus Eriseratus larvae; cited from earlier work
[9] = tested on: 8 Mycobacterium stains; settings: against 8 Mycobacterium stains; cited from earlier work
[10] = tested on: Cladosporiumsphaerosperm; settings: against Cladosporiumsphaerosperm; cited from earlier work
[11] = tested on: Moth fly (Telmatoscopus Albipunctatus); settings: against Moth fly (Telmatoscopus Albipunctatus); cited from earlier work

Structure (SMILES)	IC50 value [1]	α-glucosidase inhibitory activity up to [1]	BIOLOGICAL ACTIVITY: insecticidal activity [2]	BIOLOGICAL ACTIVITY: larvicidal [3]	BIOLOGICAL ACTIVITY: insecticidal [4]	BIOLOGICAL ACTIVITY: insect growth inhibitor [5]	BIOLOGICAL ACTIVITY: ovicidal [6]	BIOLOGICAL ACTIVITY: insecticidal [7]	BIOLOGICAL ACTIVITY: larvicida activity [8]	BIOLOGICAL ACTIVITY: antituberculotic [9]	BIOLOGICAL ACTIVITY: antifungal [10]	BIOLOGICAL ACTIVITY: insecticidal [11]
CCCCCCCCCCC=Cc1ccc2c(c1)OCO2 [pipataline, 5-(1-dodecenyl)-1,3-benzodioxol]	26.52 µg/mL (≈ 91.9 µM)	up to 77.45%	–	–	–	–	–	–	–	–	–	–
CC(C)CNC(=O)/C=C/C=C/CCCCCC/C=C/c1ccc2c(c1)OCO2 [guineensine, 13-(1,3-benzodioxol-5-yl)-N(2-methylpropyl)-2,4,12-tri decatrienamide]	20.15 µg/mL (≈ 52.5 µM)	up to 61.71%	Insecticidal activity	Larvicidal against Toxocara	Insectcidal against	–	–	–	–	–	–	–
CC(C)CNC(=O)C=CC=CCCCCCCCCC=Cc1ccc2c(c1)OCO2 [brachystamide-B, 15-(1,3-benzodioxol-5-yl)-N(2-methylpropyl)-2,4,14-pentadecatrienamide]	33.61 µg/mL (≈ 81.7 µM)	up to 73.90%	–	–	–	–	–	–	–	–	–	–
CCCCCC=CC=CC(=O)NCC(C)C [pellitorine, N-(2-methylpropyl)-2,4-decadienamide]	34.43 µg/mL (≈ 154 µM)	up to 86.03%	–	–	Insecticidal against	Insectgrowth inhibitor against	Ovicidal against Leplinotarsa	Insecticidal against Musca	Larvicida activity against	Antituberculotic against 8	Antifungal against	Insecticidal activities against
c1cc2c(cc1[C@H]1OC[C@H]3[C@@H]1CO[C@@H]3c1ccc3c(c1)OCO3)OCO2 [sesamin, 5,5-(tetrahydro-1H,3H-furo(3,4-e)furan-1,4-diyl)bis-1,3-benzodioxol]	36.35 µg/mL (≈ 103 µM)	up to 76.18%	–	–	–	–	–	–	–	–	–	–
